According to ChEMBL document CHEMBL5634207, “Helical sulfonyl-γ-AApeptides for the inhibition of HIV-1 fusion and HIF-1α signaling” (RSC Med Chem, 2024):

Columns and labels:
[1] = biological target: Hypoxia-inducible factor 1-alpha (Homo sapiens, UniProt Q16665); assay: Binding affinity to HIF-1alpha (unknown origin) assessed as dissociation constant
[2] = Cytotoxicity against human MT2 cells; type: toxicity, cell-based
[3] = test system: Human immunodeficiency virus 1; assay: Antiviral activity against HIV-1 IIIB infected in human MT2 cells incubated overnight by ELISA method; type: functional, organism-based; settings: Human immunodeficiency virus 1, MT2

Sequence of Hypoxia-inducible factor 1-alpha (Q16665 whole entry): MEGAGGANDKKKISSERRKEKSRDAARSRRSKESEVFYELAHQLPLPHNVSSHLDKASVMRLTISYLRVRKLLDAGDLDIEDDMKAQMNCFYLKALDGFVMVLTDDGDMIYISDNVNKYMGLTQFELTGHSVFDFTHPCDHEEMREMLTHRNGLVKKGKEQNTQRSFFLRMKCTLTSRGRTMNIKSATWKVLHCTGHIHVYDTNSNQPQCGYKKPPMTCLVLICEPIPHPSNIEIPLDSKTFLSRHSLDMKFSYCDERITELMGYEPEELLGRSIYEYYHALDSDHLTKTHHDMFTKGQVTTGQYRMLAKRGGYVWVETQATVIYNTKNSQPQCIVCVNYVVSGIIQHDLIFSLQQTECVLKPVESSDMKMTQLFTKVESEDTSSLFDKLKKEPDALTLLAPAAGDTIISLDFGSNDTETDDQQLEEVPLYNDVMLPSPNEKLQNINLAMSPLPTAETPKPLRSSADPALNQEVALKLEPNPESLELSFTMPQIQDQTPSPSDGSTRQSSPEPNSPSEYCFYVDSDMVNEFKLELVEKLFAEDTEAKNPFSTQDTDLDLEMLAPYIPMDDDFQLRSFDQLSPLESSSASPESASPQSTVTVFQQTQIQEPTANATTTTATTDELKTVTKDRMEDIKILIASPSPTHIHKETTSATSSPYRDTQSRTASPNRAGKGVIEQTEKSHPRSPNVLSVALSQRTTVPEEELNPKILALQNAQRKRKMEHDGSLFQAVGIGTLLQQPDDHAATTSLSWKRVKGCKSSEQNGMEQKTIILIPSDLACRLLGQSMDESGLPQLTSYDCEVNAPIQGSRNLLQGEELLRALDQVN

Row | Compound | Kd [1] | CC50 [2] | IC50 [3]
1 | CC(=O)N[C@@H](CCC(=O)O)CN(CC(=O)N[C@@H](CC(C)C)CN(CC(=O)N[C@@H](C)CN(CC(=O)N[C@@H](CCC(=O)O)CN(CC(=O)N[C@@H](CC(C)C)CN(CC(N)=O)S(=O)(=O)CC(C)C)S(C)(=O)=O)S(=O)(=O)CC(C)C)S(=O)(=O)CCN)S(=O)(=O)CC(C)C | 489 nM |  | 
2 | CC(=O)N[C@@H](CC(C)C)CN(CC(=O)N[C@@H](CCC(=O)O)CN(CC(=O)N[C@@H](CC(C)C)CN(CC(=O)N[C@@H](CCCCN)CN(CC(=O)N[C@@H](CC(C)C)CN(CC(N)=O)S(=O)(=O)CCN)S(C)(=O)=O)S(C)(=O)=O)S(=O)(=O)CC(C)C)S(C)(=O)=O | 97 nM |  | 
3 | CC(=O)N[C@@H](CCC(=O)O)C(=O)N[C@@H](CC(C)C)CN(CC(=O)N[C@@H](CC(C)C)CN(CC(=O)N[C@@H](CC(C)C)CN(CC(=O)N[C@@H](C)CN(CC(=O)N[C@@H](C)CN(CC(=O)N[C@@H](CCC(N)=O)C(N)=O)S(=O)(=O)CC(C)C)S(C)(=O)=O)S(=O)(=O)CC(C)C)S(=O)(=O)CCN)S(=O)(=O)CC(C)C | 514 nM |  | 
4 | Ac-EELLRALDQV-OH | > 10000 nM |  | 
5 | enfuvirtide |  | > 100000 nM | 36 nM
